In patent US10906938B2, “Cell epitopes and combination of cell epitopes for use in the immunotherapy of myeloma and other cancers” (Immatics Biotechnologies GmbH, priority 2015, dated 2021):

Columns and labels:
MM.1S cells = experiment: HLA class I ligand presentation upon carfilzomib treatment on MM.1S cells (LC-MS/MS); format: cell-based, human; parameters: key to modulation upon carfilzomib-treatment 24 #1 / modulation upon carfilzomib-treatment 24 #2 / modulation upon carfilzomib-treatment 24 #3 / modulation upon carfilzomib-treatment 48 #1 / modulation upon carfilzomib-treatment 48 #2 / modulation upon carfilzomib-treatment 48 #3: −1: significantly down-modulated; 0: not signifcant/not detected; 1: significantly up-modulated; settings: for modulation upon carfilzomib-treatment 24 #1 / modulation upon carfilzomib-treatment 24 #2 / modulation upon carfilzomib-treatment 24 #3: 24 h after carfilzomib treatment (100 nM, 1 h); for modulation upon carfilzomib-treatment 24 #1 / modulation upon carfilzomib-treatment 48 #1: biological replicate #1; for modulation upon carfilzomib-treatment 24 #1 / modulation upon carfilzomib-treatment 24 #2 / modulation upon carfilzomib-treatment 24 #3 / modulation upon carfilzomib-treatment 48 #1 / modulation upon carfilzomib-treatment 48 #2 / modulation upon carfilzomib-treatment 48 #3: vs mock-treated controls; for modulation upon carfilzomib-treatment 24 #2 / modulation upon carfilzomib-treatment 48 #2: biological replicate #2; for modulation upon carfilzomib-treatment 24 #3 / modulation upon carfilzomib-treatment 48 #3: biological replicate #3; for modulation upon carfilzomib-treatment 48 #1 / modulation upon carfilzomib-treatment 48 #2 / modulation upon carfilzomib-treatment 48 #3: 48 h after carfilzomib treatment (100 nM, 1 h)
Method: (§1) HLA class I and II molecules were isolated using standard immunoaffinity purification as described using the pan-HLA class I specific mAb W6/32, the pan-HLA class II specific mAb T039 and the HLA-DR specific mAB L243 (produced in house).
(§2) HLA ligand extracts were analyzed in 5 technical replicates as described previously. In brief, peptide samples were separated by nanoflow HPLC (RSLCnano, ThermoFisher) using a 50 μm×25 cm PepMap RSLC column (Thermo Fisher) and a gradient ranging from 2.4 to 32.0% acetonitrile over the course of 90 min. Eluting peptides were analyzed in an online coupled LTQ Orbitrap XL mass spectrometer (Thermo Fisher) using a top 5 CID (collision induced dissociation) fragmentation method.
(§3) Data processing was performed as described previously. In brief, the Mascot search engine (Mascot 2.2.04; Matrix Science, London, UK) was implemented to search the human proteome as comprised in the Swiss-Prot database (20,279 reviewed protein sequences, September 2013) without enzymatic restriction. Potential mutated HLA ligands were searched implementing a database containing the human proteome concatenated with proteins containing single amino acid variants (SAVs) listed in the COSMIC database (http://cancer.sanger.ac.uk/cosmic/). Only recurrent SAVs described in 2 or more samples of hematological origin were included. Oxidized methionine was allowed as a dynamic modification. The false discovery rate was estimated using the Percolator algorithm and set to 5%. Peptide lengths were limited to 8-12 amino acids for HLA class I and 12-25 amino acids for HLA class II. Protein inference was disabled, allowing for multiple protein annotations of peptides. HLA annotation was performed using SYFPEITHI [46] or an extended in-house database. Experimental validation of peptide identifications and HLA annotations was performed by mass spectrometric and functional characterization of synthetic peptides for a subset of peptides.
(§4) The inventors quantitatively assessed HLA class I ligand presentation during proteasome inhibitor therapy. Observed was a considerable plasticity of the HLA class I ligandome after treatment with carfilzomib with 17.9±1.1% of MM.1S ligands and 11.2±0.7% of U266 ligands (mean of three biological replicates ±s.d.) showing significant modulation (fold-change ≥4, Po0.01 after Benjamini-Hochberg correction) at t24 h compared with mock-treated controls. Briefly, Cultured MCLs (MM.1S and U266) and primary myeloma samples were incubated with carfilzomib (100 nM, Kyprolis®, available, e.g., from Onyx Pharmaceuticals, Inc.) as an example for a proteasome inhibitor for a 1-h period, followed by three washes in PBS (Gibco) and recultured for additional 24 or 48 h. Controls were incubated with vehicle control (glucose 5%) for 1 h, followed by identical washing and incubation for 24 or 48 h. Experiments were conducted in three biological replicates where indicated.

U266 cells = experiment: HLA class I ligand presentation upon carfilzomib treatment on U266 cells (LC-MS/MS); format: cell-based, human; parameters: key to modulation upon carfilzomib-treatment 24 #1 / modulation upon carfilzomib-treatment 24 #2 / modulation upon carfilzomib-treatment 24 #3 / modulation upon carfilzomib-treatment 48 #1 / modulation upon carfilzomib-treatment 48 #2 / modulation upon carfilzomib-treatment 48 #3: −1: significantly down-modulated; 0: not signifcant/not detected; 1: significantly up-modulated; settings: for modulation upon carfilzomib-treatment 24 #1 / modulation upon carfilzomib-treatment 24 #2 / modulation upon carfilzomib-treatment 24 #3 / modulation upon carfilzomib-treatment 48 #1 / modulation upon carfilzomib-treatment 48 #2 / modulation upon carfilzomib-treatment 48 #3: U266 cells, vs mock-treated controls; for modulation upon carfilzomib-treatment 24 #1 / modulation upon carfilzomib-treatment 24 #2 / modulation upon carfilzomib-treatment 24 #3: 24 h after carfilzomib treatment (100 nM, 1 h); for modulation upon carfilzomib-treatment 24 #1 / modulation upon carfilzomib-treatment 48 #1: biological replicate #1; for modulation upon carfilzomib-treatment 24 #2 / modulation upon carfilzomib-treatment 48 #2: biological replicate #2; for modulation upon carfilzomib-treatment 24 #3 / modulation upon carfilzomib-treatment 48 #3: biological replicate #3; for modulation upon carfilzomib-treatment 48 #1 / modulation upon carfilzomib-treatment 48 #2 / modulation upon carfilzomib-treatment 48 #3: 48 h after carfilzomib treatment (100 nM, 1 h)
Method: as §1, §2, §3, §4

[1] = carfilzomib 100 nM for 1 h, t24 h vs mock-treated controls, fold-change ≥4, Po0.01 after Benjamini-Hochberg correction, mean of three biological replicates ±s.d.
[2] = MM.1S cells, 24 h after carfilzomib treatment

Molecule | MM.1S ligands showing significant modulation (MM.1S cells; [1]) | U266 ligands showing significant modulation (U266 cells; [1]) | modulation upon carfilzomib-treatment 24 #1 (MM.1S cells; MM.1S cells) | modulation upon carfilzomib-treatment 24 #2 (MM.1S cells; MM.1S cells) | modulation upon carfilzomib-treatment 24 #3 (MM.1S cells; MM.1S cells) | modulation upon carfilzomib-treatment 48 #1 (MM.1S cells; MM.1S cells) | modulation upon carfilzomib-treatment 48 #2 (MM.1S cells; MM.1S cells) | modulation upon carfilzomib-treatment 48 #3 (MM.1S cells; MM.1S cells) | modulation upon carfilzomib-treatment 24 #1 (U266 cells) | modulation upon carfilzomib-treatment 24 #2 (U266 cells) | modulation upon carfilzomib-treatment 24 #3 (U266 cells) | modulation upon carfilzomib-treatment 48 #1 (U266 cells) | modulation upon carfilzomib-treatment 48 #2 (U266 cells) | modulation upon carfilzomib-treatment 48 #3 (U266 cells) | modulation of peptide presentation upon carfilzomib treatment (MM.1S cells; [2]) | biological replicates with significant up-modulation (MM.1S cells; [2])
CC(C)C[C@H](NC(=O)[C@H](CCc1ccccc1)NC(=O)CN1CCOCC1)C(=O)N[C@@H](Cc1ccccc1)C(=O)N[C@@H](CC(C)C)C(=O)[C@@]1(C)CO1 [carfilzomib, reference compound] | 17.9±1.1% | 11.2±0.7% | – | – | – | – | – | – | – | – | – | – | – | – | – | –
RPKAQPTTL | – | – | 0 | 0 | 1 | 0 | 0 | 0 | 0 | 0 | 0 | 0 | 0 | 0 | – | –
FVFPGELLL | – | – | 0 | 0 | 0 | 0 | 0 | 0 | 1 | 1 | 0 | 0 | 0 | 0 | – | –
FAYPAIRYL | – | – | 0 | 0 | 0 | 0 | 0 | 0 | 0 | 0 | 0 | 1 | 0 | 1 | – | –
KPRPPQGL | – | – | 1 | 1 | 1 | 1 | 0 | 0 | 0 | 0 | 0 | 1 | 1 | 1 | – | –
IPAKPPVSF | – | – | 0 | 0 | 0 | 0 | 0 | 0 | 0 | 0 | 0 | 0 | 0 | 0 | – | –
RPQLKGVVL | – | – | 0 | 0 | 0 | 0 | 0 | 0 | 0 | 0 | 0 | 0 | 0 | 0 | – | –
NEFPVFDEF | – | – | 0 | 0 | 0 | 0 | 0 | 0 | – | – | – | – | – | – | – | –
TFLPFIHTI | – | – | 0 | 0 | 0 | 0 | 0 | 0 | – | – | – | – | – | – | – | –
SYLNSVQRL | – | – | 0 | 0 | 0 | 0 | 0 | 0 | – | – | – | – | – | – | – | –
APRHPSTNSL | – | – | 0 | 0 | 1 | 0 | 0 | 0 | 0 | 1 | 0 | 1 | 1 | 0 | – | –
SPALPGLKL | – | – | 0 | 0 | 0 | 0 | 0 | 0 | – | – | – | – | – | – | – | –
YYLNEIQSF | – | – | 0 | 0 | 0 | 0 | 0 | 0 | – | – | – | – | – | – | – | –
IEHPSMSVY | – | – | 1 | 1 | 1 | 0 | 1 | 1 | – | – | – | – | – | – | – | –
TPSSRPASL | – | – | 1 | 1 | 0 | 0 | 0 | 0 | 0 | 0 | 0 | 0 | 0 | 0 | – | –
RYFKGPELL | – | – | 0 | 0 | 0 | 0 | 0 | 0 | – | – | – | – | – | – | – | –
YYLNEIQSF [SEQ ID NO: 228] | – | – | – | – | – | – | – | – | – | – | – | – | – | – | no significant modulation | –
EYGHIPSF (listed as Homo sapiens) [SEQ ID NO: 42] | – | – | – | – | – | – | – | – | – | – | – | – | – | – | significant up-modulation | 2/3
RYSTQIHSF | – | – | 0 | 0 | 0 | 0 | 0 | 0 | – | – | – | – | – | – | – | –
